Data: patent US5959130A, “Castor based benzoate esters” (Finetex, Inc., priority 1997, dated 1999)

Columns and labels:
[1] = physical properties of benzoate esters compared to precursors, Table II; format: physicochemical; conditions: for VISCOSITY: Brookfield Viscometer, Spindle # 1, 10 rpm
Excerpt: Absence of odor is an important factor in consumer acceptance of cosmetic and toiletry products.

[2] = sunscreen solubility: Benzophenone-3, Table IV A; format: physicochemical
Excerpt: (§1) These two sunscreens are difficult to dissolve and keep in solution for use in sunscreen formulations for optimal SPF (sun-protection factors). Higher solvency for a sunscreen ingredient is desirable as it allows higher concentrations of the sunscreen active ingredient in a formulation. This advantageously raises the SPF ratings for the formulation. The liquid organic sunscreens that are commonly used are octyl-methoxy cinnamate (OMC) and octyl salicylate (OS).
(§2) Solubility/Solvency Tables IVA and IVB show the solubility and concentrations of the sunscreen ingredient in the novel esters of the invention compared to their precursor raw materials (non-benzoate esters).

[3] = sunscreen solubility: PARSOL 1789, Table IV B; format: physicochemical
Excerpt: as §1, §2

[4] = Hagman readings (particle size), titanium dioxide dispersion, Table VI A; format: physicochemical; conditions: for Hagman reading (particle size): TiO2 50%
Protocol: (§3) The novel benzoate esters of the invention were tested for pigment and dye dispersing efficacy. Color pastes were prepared by dispersing dry pigment into the oil phase while hand stirring and then passing each mixture through a three roll mill six times, collecting a 16 oz. sample after each pass. The samples collected were subjected to particle size measurements.

[5] = Hagman readings (particle size), Red No. 6 Barium Lake dispersion, Table VI A; format: physicochemical; conditions: Red No. 6 Barium Lake 35%
Protocol: as §3

[6] = Hagman readings (particle size), Red No. 21 dispersion, Table VI A; format: physicochemical; conditions: Red No. 21 35%
Protocol: as §3

[7] = viscosity readings of titanium dioxide dispersions, Table VI B; format: physicochemical; conditions: for Viscosity reading of dispersion: Brookfield LVT-D @ 12 RPM, TiO2 50%
[8] = viscosity readings of Red No. 21 dispersions, Table VI B; format: physicochemical; conditions: for Viscosity reading of dispersion: Brookfield LVT-D @ 12 RPM, Red No. 21 35%
[9] = organoleptic evaluation of tactile characteristics on the forearm, Table VII; format: in vivo, individuals; conditions: rating, 1 = Worst 5 = Best
Protocol: The tactile characteristics of the novel benzoate esters of the invention were determined by applying the appropriate material, neat or as a dilution with another emollient ester, lanolin or […]. The properties were evaluated organoleptically after application to the interior surface of the forearm.

[10] = in specific ratios
Excerpt: The aforedescribed benzoate esters have unique properties that make them particularly suited for use as emollient carriers for cosmetic ingredients. […] Parsol® is a registered trademark of Givaudan Corp. of Clifon, N.J.

[11] = Gardnor scale
[12] = 23° C., 10 gms sunscreen in 100 gms mixture
[13] = 23° C., 15 gms sunscreen in 100 gms mixture
[14] = 30° C., 10 gms sunscreen in 100 gms mixture
[15] = 30° C., 15 gms sunscreen in 100 gms mixture

CCCCCCC(CC=CCCCCCCCC(=O)OCC(COC(=O)CCCCCCCC=CCC(CCCCCC)OC(=O)c1ccccc1)OC(=O)CCCCCCCC=CCC(CCCCCC)OC(=O)c1ccccc1)OC(=O)c1ccccc1 (stereo not drawn) [BCO, Benzoic acid ester of glyceryl tri-ricinoleate]
S.G. (specific gravity) ([1]; 25° C.): 0.982
VISCOSITY [1]: 937 cps
Sunscreen solubility (Benzophenone-3) [2, 12]: +
Sunscreen solubility (Benzophenone-3) [2, 13]: +
Sunscreen solubility (Benzophenone-3) [2, 14]: +
Sunscreen solubility (Benzophenone-3) [2, 15]: +
Sunscreen solubility (Parsol 1789) [3, 12]: +
Sunscreen solubility (Parsol 1789) ([3]; 30° C., 5 gms sunscreen in 100 gms mixture): +
Sunscreen solubility (Parsol 1789) [3, 14]: +
Sunscreen solubility (Parsol 1789) [3, 15]: +
Hagman reading (particle size) ([4]; pass 1): ≤ 30 μm
Hagman reading (particle size) ([4]; pass 2): ≤ 26 μm
Hagman reading (particle size) ([4]; pass 3): ≤ 20 μm
Hagman reading (particle size) ([4]; pass 4): ≤ 10 μm
Hagman reading (particle size) ([4]; pass 5): ≤ 10 μm
Hagman reading (particle size) ([4]; pass 6): ≤ 8 μm
Hagman reading (particle size) ([5]; pass 1): ≤ 49 μm
Hagman reading (particle size) ([5]; pass 2): ≤ 45 μm
Hagman reading (particle size) ([5]; pass 3): ≤ 42 μm
Hagman reading (particle size) ([5]; pass 4): ≤ 40 μm
Hagman reading (particle size) ([5]; pass 5): ≤ 36 μm
Hagman reading (particle size) ([5]; pass 6): ≤ 33 μm
Hagman reading (particle size) ([6]; pass 1): ≤ 39 μm
Hagman reading (particle size) ([6]; pass 2): ≤ 30 μm
Hagman reading (particle size) ([6]; pass 3): ≤ 26 μm
Hagman reading (particle size) ([6]; pass 4): ≤ 14 μm
Hagman reading (particle size) ([6]; pass 5): ≤ 12 μm
Hagman reading (particle size) ([6]; pass 6): ≤ 10 μm
viscosity of TiO2 dispersions (in words) [7]: much lower viscosity
Viscosity reading of dispersion ([7]; pass 1): 6552 cps
Viscosity reading of dispersion ([7]; pass 2): 7176 cps
Viscosity reading of dispersion ([7]; pass 3): 7800 cps
Viscosity reading of dispersion ([7]; pass 4): 7332 cps
Viscosity reading of dispersion ([7]; pass 5): 7176 cps
Viscosity reading of dispersion ([7]; pass 6): 6786 cps
Viscosity reading of dispersion ([8]; pass 1): > 15,600 cps
Viscosity reading of dispersion ([8]; pass 2): > 15,600 cps
Viscosity reading of dispersion ([8]; pass 3): > 15,600 cps
Viscosity reading of dispersion ([8]; pass 4): > 15,600 cps
Viscosity reading of dispersion ([8]; pass 5): > 15,600 cps
Viscosity reading of dispersion ([8]; pass 6): > 15,600 cps
GREASINESS/OILINESS [9]: 4
OVERALL TACTILITY [9]: 3
SPREADABILITY [9]: 4
TACK [9]: 2
miscibility with Parsol 1789 [10]: miscible
miscibility with benzophenone-3 [10]: miscible

CCCCCCCCCCCCCCCCOC(=O)CCCCCCCC=CCC(CCCCCC)OC(=O)c1ccccc1 (stereo not drawn) [BCR, benzoic acid ester of cetyl-ricinoleate]
S.G. (specific gravity) ([1]; 25° C.): 0.915
VISCOSITY [1]: 80 cps
Sunscreen solubility (Benzophenone-3) [2, 12]: +
Sunscreen solubility (Benzophenone-3) [2, 13]: +
Sunscreen solubility (Benzophenone-3) [2, 14]: +
Sunscreen solubility (Benzophenone-3) [2, 15]: +
Sunscreen solubility (Parsol 1789) [3, 12]: +
Sunscreen solubility (Parsol 1789) [3, 13]: +
Sunscreen solubility (Parsol 1789) [3, 14]: +
Sunscreen solubility (Parsol 1789) [3, 15]: +
Hagman reading (particle size) ([4]; pass 1): ≤ 30 μm
Hagman reading (particle size) ([4]; pass 2): ≤ 30 μm
Hagman reading (particle size) ([4]; pass 3): ≤ 21 μm
Hagman reading (particle size) ([4]; pass 4): ≤ 18 μm
Hagman reading (particle size) ([4]; pass 5): ≤ 10 μm
Hagman reading (particle size) ([4]; pass 6): ≤ 10 μm
particle size reduction vs precursor CR (in words) ([4]; third pass and onwards): better reduction of particle size
Hagman reading (particle size) ([5]; pass 1): ≤ 53 μm
Hagman reading (particle size) ([5]; pass 2): ≤ 50 μm
Hagman reading (particle size) ([5]; pass 3): ≤ 46 μm
Hagman reading (particle size) ([5]; pass 4): ≤ 33 μm
Hagman reading (particle size) ([5]; pass 5): ≤ 30 μm
Hagman reading (particle size) ([5]; pass 6): ≤ 27 μm
Hagman reading (particle size) ([6]; pass 1): ≤ 34 μm
Hagman reading (particle size) ([6]; pass 2): ≤ 26 μm
Hagman reading (particle size) ([6]; pass 3): ≤ 20 μm
Hagman reading (particle size) ([6]; pass 4): ≤ 12 μm
Hagman reading (particle size) ([6]; pass 5): ≤ 8 μm
Hagman reading (particle size) ([6]; pass 6): ≤ 6 μm
viscosity of TiO2 dispersions (in words) [7]: much lower viscosity
Viscosity reading of dispersion ([7]; pass 1): 1794 cps
Viscosity reading of dispersion ([7]; pass 2): 1872 cps
Viscosity reading of dispersion ([7]; pass 3): 2028 cps
Viscosity reading of dispersion ([7]; pass 4): 2028 cps
Viscosity reading of dispersion ([7]; pass 5): 2028 cps
Viscosity reading of dispersion ([7]; pass 6): 1950 cps
viscosity of Red No. 21 dispersion (in words) [8]: excellent low viscosity dispersion
Viscosity reading of dispersion ([8]; pass 1): 4602 cps
Viscosity reading of dispersion ([8]; pass 2): 4368 cps
Viscosity reading of dispersion ([8]; pass 3): 4212 cps
Viscosity reading of dispersion ([8]; pass 4): 4134 cps
Viscosity reading of dispersion ([8]; pass 5): 4290 cps
Viscosity reading of dispersion ([8]; pass 6): 4368 cps
GREASINESS/OILINESS [9]: 4
OVERALL TACTILITY [9]: 4
SPREADABILITY [9]: 3
TACK [9]: 3

CCCCCCC(CCCCCCCCCCC(=O)OCC(COC(=O)CCCCCCCCCCC(CCCCCC)OC(=O)c1ccccc1)OC(=O)CCCCCCCCCCC(CCCCCC)OC(=O)c1ccccc1)OC(=O)c1ccccc1 (stereo not drawn) [BHCO, Benzoic acid ester of glyceryl-trihydroxy stearate]
GREASINESS/OILINESS [9]: 4
OVERALL TACTILITY [9]: 3
SPREADABILITY [9]: 3
TACK [9]: 3

CCCCCCC(CCCCCCCCCCC(=O)OCC(CC)CCCC)OC(=O)c1ccccc1 (stereo not drawn) [BOHS, benzoic acid ester of 2 ethyl hexyl 12-hydroxy stearate]
S.G. (specific gravity) ([1]; 25° C.): 0.928
TITER ([1]; 25° C.): clear
VISCOSITY [1]: 110 cps
Sunscreen solubility (Benzophenone-3) [2, 12]: +
Sunscreen solubility (Benzophenone-3) [2, 13]: +
Sunscreen solubility (Benzophenone-3) [2, 14]: +
Sunscreen solubility (Benzophenone-3) [2, 15]: +
Sunscreen solubility (Parsol 1789) [3, 12]: +
Sunscreen solubility (Parsol 1789) [3, 13]: +
Sunscreen solubility (Parsol 1789) [3, 14]: +
Sunscreen solubility (Parsol 1789) [3, 15]: +
Hagman reading (particle size) ([4]; pass 1): ≤ 20 μm
Hagman reading (particle size) ([4]; pass 2): ≤ 14 μm
Hagman reading (particle size) ([4]; pass 3): ≤ 14 μm
Hagman reading (particle size) ([4]; pass 4): ≤ 10 μm
Hagman reading (particle size) ([4]; pass 5): ≤ 9 μm
Hagman reading (particle size) ([4]; pass 6): ≤ 8 μm
viscosity of TiO2 dispersions (in words) [7]: much lower viscosity
Viscosity reading of dispersion ([7]; pass 1): 1170 cps
Viscosity reading of dispersion ([7]; pass 2): 1170 cps
Viscosity reading of dispersion ([7]; pass 3): 1326 cps
Viscosity reading of dispersion ([7]; pass 4): 1326 cps
Viscosity reading of dispersion ([7]; pass 5): 1326 cps
Viscosity reading of dispersion ([7]; pass 6): 1326 cps
GREASINESS/OILINESS [9]: 4
OVERALL TACTILITY [9]: 3
SPREADABILITY [9]: 4
TACK [9]: 3

CCCCCCC(CCCCCCCCCCC(=O)OCC(COC(=O)CCCCCCCCCCC(CCCCCC)OC(=O)c1ccccc1)OC(=O)CCCCCCCCCCC(CCCCCC)OC(=O)c1ccccc1)OC(=O)c1ccccc1 (stereo not drawn) [Example 6, Castor Wax MP-80 Benzoate]
Color [11]: 3

CCCCCCC(CCCCCCCCCCC(=O)OCC(COC(=O)CCCCCCCCCCC(CCCCCC)OC(=O)c1ccccc1)OC(=O)CCCCCCCCCCC(CCCCCC)OC(=O)c1ccccc1)OC(=O)c1ccccc1 (stereo not drawn) [Example 7, Castor Wax MP-80 Benzoate]
Color [11]: 3

CCCCCCCCCCCCCCCCOC(=O)CCCCCCCC=CCC(CCCCCC)OC(=O)c1ccccc1 (stereo not drawn) [Example 8, Benzoate Ester of Cetyl Ricinoleate]
Color [11]: 4

CCCCCCCCCCCCCCCCOC(=O)CCCCCCCC=CCC(CCCCCC)OC(=O)c1ccccc1 (stereo not drawn) [Example 9, Benzoate Ester of Cetyl Ricinoleate]
Color [11]: 4

CCCCCCCCCCCCCCCCOC(=O)CCCCCCCC=CCC(CCCCCC)OC(=O)c1ccccc1 (stereo not drawn) [Example 10, Benzoate Ester of Cetyl Ricinoleate]
Color [11]: 4

CCCCCCCCCCCCCCCCOC(=O)CCCCCCCC=CCC(CCCCCC)OC(=O)c1ccccc1 (stereo not drawn) [Example 11, Benzoate Ester of Cetyl Ricinoleate]
Color [11]: 4

CCCCCCC(O)CCCCCCCCCCC(=O)OCC(CC)CCCC (stereo not drawn) [OHS, octyl hydroxystearate, reference compound]
Sunscreen solubility (Benzophenone-3) [2, 12]: +
Sunscreen solubility (Benzophenone-3) [2, 14]: +
Sunscreen solubility (Benzophenone-3) [2, 15]: +
Sunscreen solubility (Parsol 1789) [3, 12]: +
Sunscreen solubility (Parsol 1789) [3, 14]: +
Sunscreen solubility (Parsol 1789) [3, 15]: +
